Measured values taken from US20110039721A1, “METHOD FOR PREDICTION ABOUT CARCINOGENICITY OF SUBSTANCE IN RODENT” (Chemicals Evaluation and Research Institute, priority 2007, published 2011).

Tests used:
[1] = classification M+/M−; cited from earlier work
liver = details: classification Cr+/Cr−; cited from earlier work
rodent = details: classification C+/C−; cited from earlier work
[2] = test system: mRNA expressed from the genes (A) to (D) in rat liver; test: Behavior of genes (mRNA expression level, oligo-DNA microarray) in rat liver after 28-day oral administration; format: in vivo
How it was run: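 Male F344 SPF rats, 5 weeks old, four per group, dosed by oral gavage once daily for 28 days with test chemical or matched-volume solvent. Liver total RNA profiled on oligo-DNA microarray. Change ≥1.5-fold or ≤1/1.5 versus vehicle counted as significant if its direction matched that seen with other carcinogens.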

## CC(=O)Nc1cccc2c1-c1ccccc1C2 [TS061, 4-Acetylaminofluorene]
[1]
  Mutagenicity by Ames test: M+
liver
  Liver carcinogenicity: Cr−
rodent
  Carcinogenicity: C−
[2]; Gene No. 154, Rn.185941, group (C)
  Behavior of gene caused by administration of chemical substance: −
[2]; Gene No. 533, Rn.106184, group (C)
  Behavior of gene caused by administration of chemical substance: −
[2]; Gene No. 725, Rn.108075, group (C)
  Behavior of gene caused by administration of chemical substance: −
[2]; Gene No. 813, Rn.201760, group (C)
  Behavior of gene caused by administration of chemical substance: −
[2]; Gene No. 893, Rn.164817, group (C)
  Behavior of gene caused by administration of chemical substance: −
[2]; Gene No. 1119, Rn.9757, group (C)
  Behavior of gene caused by administration of chemical substance: −
[2]; Gene No. 1131, Rn.144946, group (C)
  Behavior of gene caused by administration of chemical substance: −
[2]; Gene No. 1163, Rn.11766, group (C)
  Behavior of gene caused by administration of chemical substance: +
[2]; Gene No. 1334, Rn.120914, group (C)
  Behavior of gene caused by administration of chemical substance: −
[2]; Gene No. 1494, Rn.1430, group (B)
  Behavior of gene caused by administration of chemical substance: −
[2]; Gene No. 1562, Rn.14744, group (C)
  Behavior of gene caused by administration of chemical substance: −
[2]; Gene No. 1741, Rn.1647, group (C)
  Behavior of gene caused by administration of chemical substance: −
[2]; Gene No. 1993, Rn.18728, group (C)
  Behavior of gene caused by administration of chemical substance: −
[2]; Gene No. 2026, Rn.167075, group (A)
  Behavior of gene caused by administration of chemical substance: +
[2]; Gene No. 2045, Rn.19329, group (B)
  Behavior of gene caused by administration of chemical substance: −
[2]; Gene No. 2203, Rn.21240, group (B)
  Behavior of gene caused by administration of chemical substance: −
[2]; Gene No. 2494, Rn.23969, group (C)
  Behavior of gene caused by administration of chemical substance: −
[2]; Gene No. 2546, Rn.24561, group (C)
  Behavior of gene caused by administration of chemical substance: −
[2]; Gene No. 3776, Rn.43232, group (C)
  Behavior of gene caused by administration of chemical substance: −
[2]; Gene No. 3929, Rn.4620, group (C)
  Behavior of gene caused by administration of chemical substance: −
[2]; Gene No. 4095, Rn.119024, group (C)
  Behavior of gene caused by administration of chemical substance: −
[2]; Gene No. 4218, Rn.167075, group (A)
  Behavior of gene caused by administration of chemical substance: −
[2]; Gene No. 4846, Rn.144554, group (A)
  Behavior of gene caused by administration of chemical substance: +
[2]; Gene No. 4973, Rn.118529, group (C)
  Behavior of gene caused by administration of chemical substance: −
[2]; Gene No. 5600, Rn.9836, group (A)
  Behavior of gene caused by administration of chemical substance: −
[2]; Gene No. 5634, Rn.9862, group (C)
  Behavior of gene caused by administration of chemical substance: −
[2]; Gene No. 5726, Rn.9939, group (D)
  Behavior of gene caused by administration of chemical substance: −
[2]; Gene No. 5878, Rn.143213, group (C)
  Behavior of gene caused by administration of chemical substance: −
[2]; Gene No. 6026, Rn.167685, group (C)
  Behavior of gene caused by administration of chemical substance: −
[2]; Gene No. 6182, Rn.5834, group (A)
  Behavior of gene caused by administration of chemical substance: +
[2]; Gene No. 6303, Rn.123063, group (C)
  Behavior of gene caused by administration of chemical substance: −
[2]; Gene No. 6620, Rn.120914, group (C)
  Behavior of gene caused by administration of chemical substance: −
[2]; Gene No. 6742, Rn.9779, group (C)
  Behavior of gene caused by administration of chemical substance: −
